From paper PMC10492782, “Exploiting the aggregation propensity of beta-lactamases to design inhibitors that induce enzyme misfolding” (Nature Communications, 2023)

Columns and labels:
human erythrocytes = assay: Hemolysis; details: 2 h at 37 °C, normalized to 1% triton
Experimental: Fig. 7 Evaluation of in vivo use of peptides that induce the aggregation of TEM beta-lactamase. A Lysis of human erythrocytes (hemolysis) was assessed in the presence of the indicated concentrations of TEM3.2 for 2 h at 37 °C, and normalized to the value obtained with 1% of the detergent triton. […] B Cell viability using the CellTiter Blue assay of HeLa cells treated for 24 h with the indicated concentrations TEM 3.2 at 37 °C. […] DAPI (4’,6-diamidino-2-phenylindole) is blue, while CellMask is red. D Experimental workflow of the in vivo model used in this study. E–G Bacterial load of indicated organs of female C57BL/6JAX mice with a urinary tract infection with E. coli strain UZ_TEM104, treated with 30 mg/kg penicillin (oral) as well 10 mg/kg tazobactam (oral) or 10 mg/kg TEM3.2 via the indicated treatment route. IV intravenous, IP intraperitoneal, SC subcutaneously. The data shown is from a single experiment with 12 animals for each group. The result for each animal is shown as a dot. […] The statistically significant differences were determined using ANOVA, followed by Dunnett’s multiple comparison test. […] Source data are provided as a Source Data file.

TEM beta-lactamase = biological target: T1, TEM beta-lactamase (Escherichia coli, UniProt P62593); assay: β-lactamase activity assay (nitrocefin); assay type: biochemical; details: chromogenic substrate nitrocefin, Suppl Fig. 8
T1 construct: His-tag (N); TEV cleavage site (N); made in house; host or cells: E. coli BL21 (DE3)
Experimental: The beta-lactamase assay procedure is based on the hydrolysis of the substrate Nitrocefin, a chromogenic cephalosporin, which produces a colored product (detectable at OD = 490 nm) that is directly proportional to the quantity of beta-lactamase activity. This experiment was carried out in 96-well black polystyrene flat-bottom microtiter plates (BD Biosciences). In brief, 50 μl of different concentrations of peptides or tazobactam in PBS were added to each well, followed by 50 μl of beta-lactamase protein at a final concentration of 12 ng. The plate was incubated at 37 °C for 1 h. The control heat was heated for 1 h at 95 degrees Celsius. Each well received 5 μl of Nitrocefin at a stock concentration of 0.5 mg/mL Nitrocefin. The hydrolyzed Nitrocefin was identified by absorption at 490 nm, which is proportional to the amount of beta-lactamase activity.

[1] = system: E. coli strain lacking TEM (ATCC 25922); assay: Structured illumination microscopy, inclusion bodies in strain lacking TEM; assay type: cell-based, Escherichia coli; details: 12 μM, 120 min, pFTAA stain, SIM
Source text: Fig. 5 Induction of aggregation in cells. […] A single representative image is shown. […] A single representative image is shown. C SIM and brightfield images as in A, but for E. coli ATCC strain. […] A single representative image is shown. […] A single representative blot is shown. […] The corrected P-values were 0.6091, 0.0029, 0.0027, <0.0001, and 0.9992, from left to right. […] Statistics exactly as in E, but from 3 independent experiments. The corrected P-values were 0.8753, 0.9796, 0.0001, 0.0003, and 0.0003, from left to right. Source data are provided as a Source Data file.
The bacterial cultures were washed with PBS, and the number of bacteria was adjusted to 10^8–10^9 cells/mL. […] Then, cells were treated with LCO dyes (pFTAA; Amytacker^TM680 or Amytacker^TM545: final concentration of 0.5 µM; Ebba Biotech, Sweden) for at least 90 min. The absorption, emission, and excitation spectra for each dye were measured based on the standard Ebbabiotec advice (ebbabiotech.com).
Bacteria were fixed by adding 2.5% paraformaldehyde and 0.04 % glutaraldehyde (final concentrations) to the culture media, followed by incubation at room temperature for 15 min and 30 min on ice. Bacteria were then washed in PBS and resuspended in GTE buffer (50 mM glucose, 25 mM Tris, and 10 mM EDTA, pH 8.0). Directly preceding microscopic analysis, cells were transferred to a glass slide and covered with a coverslip. […]

NCI-H441 = details: 24 h, 400 to 12.5 µg/mL
Experimental: (§1) The Cell Titer Blue assay was performed to evaluate the cell viability according to the instructions of the manufacturer (Promega, USA). The peptide treatments were done in DMEM medium without serum. Briefly, cells were seeded to approximately 20,000 mammalian cells per well in a 96-well flat-bottom plate (BD Biosciences 353075) and incubated at 37 °C with 5% CO2 and 90% humidity. Peptides were diluted in cell medium, and cells were treated for 24 h. 20 μL of the CellTiter Blue reagent was added to each well and the plate was incubated for 1 h at 37 °C. The fluorescence was measured at 590 nm by exciting at 560 nm with a ClarioStar plate reader (BMG Labtech, Germany).
(§2) Khodaparast et al Supplementary data
(§3) Supplementary Figure 12: Cell viability assays on mammalian cells using the CellTiter Blue assay, plotted as relative values compared to vehicle. The colours of the bars show the concentrations indicated in the legends in µg/mL, ranging from 400 to 6.25 µg/mL. The dots indicate individual measurements on independent wells of cells (4 repeats), the bars

[2] = system: primary mouse cortical neurons; details: 24 h, 400 to 6.25 µg/mL
Experimental: as §1, §2, §3

HEK293 = details: 24 h, 400 to 6.25 µg/mL
Experimental: as §1, §2, §3

SH-SY5Y = details: 24 h, 400 to 6.25 µg/mL
Experimental: as §1, §2, §3

HT-1376 = details: 24 h, 400 to 6.25 µg/mL
Experimental: as §1, §2, §3

[3] = pFTAA fluorescence of peptide aggregates; assay type: physicochemical; details: 50 μM peptide, PolyP condition
Experimental: Fig. 4 Aggregation kinetics of TEM and SHV proteins and peptides. A Measurements of the hydrodynamic radius by Dynamic Light Scattering of 50 μM TEM3.2 in buffer alone, or in the presence of LPS or polyphosphate (PolyP). […] C Transmission Electron Micrograph of 50 μM TEM 3.2 incubated for 24 h in the same buffer as A with polyP, negatively stained with 2% (w/v) uranyl acetate. A single representative image is shown. […] Three replicates are shown for each condition. E Aggregation kinetics using pFTAA fluorescence emission of recombinantly purified TEM-1, in the presence of vehicle, or TEM 3.2 peptin, as well as peptin-only control. F Similar as in E, but using an off-target Pept-In, based on an APR sequence of beta-galactosidase. G Similar to E, but now using a previously published off-target Pept-In, based on an APR of HcaB. The plots are the results of a single experiment, all replicates are shown. Source data are provided as a Source Data file.

T1 sequence (P62593 24-286 limits assumed): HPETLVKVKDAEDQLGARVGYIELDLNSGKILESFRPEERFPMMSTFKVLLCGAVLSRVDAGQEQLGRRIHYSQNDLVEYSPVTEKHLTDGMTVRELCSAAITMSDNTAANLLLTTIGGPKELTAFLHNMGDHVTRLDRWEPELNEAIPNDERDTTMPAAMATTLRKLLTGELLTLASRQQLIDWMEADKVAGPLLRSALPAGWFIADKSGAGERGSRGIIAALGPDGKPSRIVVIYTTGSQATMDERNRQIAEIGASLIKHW

Ac-RLTAFLHNRRPRLTAFLRQRR-NH2 [TEM3.2]
hemolysis (in words) (human erythrocytes): not hemolytic to human erythrocytes | effect on beta-lactamase enzymatic function (in words) (TEM beta-lactamase): loss of function of the enzymatic function of the beta-lactamase | inclusion body formation (in words) [1]: only very limited inclusion body formation | cytotoxicity, Cell Titer Blue (in words) (NCI-H441): not cytotoxic | cytotoxicity, Cell Titer Blue (in words) [2]: not cytotoxic | cytotoxicity, Cell Titer Blue (in words) (HEK293): not cytotoxic | cytotoxicity, Cell Titer Blue (in words) (SH-SY5Y): not cytotoxic | cytotoxicity, Cell Titer Blue (in words) (HT-1376): not cytotoxic | pFTAA staining of fibrils (in words) [3]: stain positive for pentameric formyl thiophene acetic acid (pFTAA)
